± gives the expanded uncertainty stated by the source.
Legend:
[1] = 101.3 kPa, Liquid
[2] = xn = mol fraction of the nth substance listed; settings: 101.3 kPa, Liquid

CCCCCCCC [octane]
mass density ([1]; 293.15 K): 702.6 ± 0.3 kg/m3
speed of sound ([1]; 293.15 K): 1193 ± 2 m/s
viscosity ([1]; 293.15 K): 0.538 ± 0.015 mPa·s
mass density ([1]; 298.15 K): 698.5 ± 0.4 kg/m3
speed of sound ([1]; 298.15 K): 1173 ± 2 m/s
viscosity ([1]; 298.15 K): 0.506 ± 0.014 mPa·s
mass density ([1]; 303.15 K): 694.5 ± 0.4 kg/m3
speed of sound ([1]; 303.15 K): 1152 ± 2 m/s
viscosity ([1]; 303.15 K): 0.478 ± 0.014 mPa·s

CCC(C)O (stereo unspecified) [butan-2-ol] + CCCCCCCCCCCC
mass density ([2]; 293.15 K, x1 = 1): 806.8 ± 0.3 kg/m3
speed of sound ([2]; 293.15 K, x1 = 1): 1230 ± 2 m/s
viscosity ([2]; 293.15 K, x1 = 1): 3.623 ± 0.058 mPa·s
mass density ([2]; 298.15 K, x1 = 1): 802.7 ± 0.3 kg/m3
speed of sound ([2]; 298.15 K, x1 = 1): 1212 ± 2 m/s
viscosity ([2]; 298.15 K, x1 = 1): 2.995 ± 0.049 mPa·s
mass density ([2]; 303.15 K, x1 = 1): 798.5 ± 0.3 kg/m3
speed of sound ([2]; 303.15 K, x1 = 1): 1194 ± 2 m/s
viscosity ([2]; 303.15 K, x1 = 1): 2.493 ± 0.042 mPa·s

CCCCCCCC [octane] + CCC(C)O
mass density ([2]; 293.15 K, x2 = 0): 702.6 ± 0.3 kg/m3
speed of sound ([2]; 293.15 K, x2 = 0): 1193 ± 2 m/s
viscosity ([2]; 293.15 K, x2 = 0): 0.538 ± 0.015 mPa·s
mass density ([2]; 298.15 K, x2 = 0): 698.5 ± 0.4 kg/m3
speed of sound ([2]; 298.15 K, x2 = 0): 1173 ± 2 m/s
viscosity ([2]; 298.15 K, x2 = 0): 0.506 ± 0.014 mPa·s
mass density ([2]; 303.15 K, x2 = 0): 694.5 ± 0.4 kg/m3
speed of sound ([2]; 303.15 K, x2 = 0): 1152 ± 2 m/s
viscosity ([2]; 303.15 K, x2 = 0): 0.478 ± 0.014 mPa·s

CCCCCCCCCC [decane]
mass density ([1]; 293.15 K): 729.9 ± 0.5 kg/m3
speed of sound ([1]; 293.15 K): 1254 ± 2 m/s
viscosity ([1]; 293.15 K): 0.911 ± 0.015 mPa·s
mass density ([1]; 298.15 K): 726.1 ± 0.5 kg/m3
speed of sound ([1]; 298.15 K): 1235 ± 2 m/s
viscosity ([1]; 298.15 K): 0.845 ± 0.014 mPa·s
mass density ([1]; 303.15 K): 722.3 ± 0.5 kg/m3
speed of sound ([1]; 303.15 K): 1215 ± 2 m/s
viscosity ([1]; 303.15 K): 0.787 ± 0.013 mPa·s

— the NIST ThermoML archive (doi:10.1016/j.jct.2003.12.005)
